Data from patent publication US20220370467A1, “USING OF A PPAR-DELTA AGONIST IN THE TREATMENT OF KIDNEY DISEASE” (Reneo Pharmaceuticals, Inc., priority 2019, published 2022).

Columns and labels:
hPPARγ = target: T1, hPPARγ (Homo sapiens, UniProt P37231); assay: in vitro assay on human PPAR subtypes (transactivation): hPPARγ; format: cell-based
T1 construct: expressed in transfected cells; host or cells: HEK293
T1 sequence (P37231 238-503 limits assumed): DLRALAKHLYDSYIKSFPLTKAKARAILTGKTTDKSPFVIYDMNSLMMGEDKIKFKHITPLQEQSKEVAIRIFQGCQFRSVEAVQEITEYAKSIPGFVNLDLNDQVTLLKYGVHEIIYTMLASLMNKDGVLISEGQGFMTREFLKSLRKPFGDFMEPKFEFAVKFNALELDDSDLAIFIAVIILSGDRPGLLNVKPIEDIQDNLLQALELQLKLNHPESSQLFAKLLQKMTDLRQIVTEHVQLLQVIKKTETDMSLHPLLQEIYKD
Excerpt: (§1) “Activation” here is defined as the abovementioned downstream response, which in the case of PPAR's is gene transcription. Gene transcription may be measured indirectly as downstream production of proteins reflective of the activation of the particular PPAR subtype under study. Alternatively, an artificial reporter construct may be employed to study the activation of the individual PPAR's expressed in cells. The ligand binding domain of the particular receptor to be studied may be fused to the DNA binding domain of a transcription factor, which produces convenient laboratory readouts, such as the yeast GAL4 transcription factor DNA binding domain. The fusion protein may be transfected into a laboratory cell line along with a Gal4 enhancer, which effects the expression of the luciferase protein. When such a system is transfected into a laboratory cell line, binding of a receptor agonist to the fusion protein will result in light emission.
(§2) The PPAR transient transactivation assay may be based on transient transfection into human HEK293 cells of two plasmids encoding a chimeric test protein and a reporter protein respectively. […] The amount of luciferase protein is measured by light emission after addition of the appropriate substrate. […]

hPPARα = target: T2, hPPARα (Homo sapiens, UniProt Q07869); assay: in vitro assay on human PPAR subtypes (transactivation): hPPARα; format: cell-based
T2 construct: expressed in transfected cells; host or cells: HEK293
T2 sequence (Q07869 239-466 limits assumed): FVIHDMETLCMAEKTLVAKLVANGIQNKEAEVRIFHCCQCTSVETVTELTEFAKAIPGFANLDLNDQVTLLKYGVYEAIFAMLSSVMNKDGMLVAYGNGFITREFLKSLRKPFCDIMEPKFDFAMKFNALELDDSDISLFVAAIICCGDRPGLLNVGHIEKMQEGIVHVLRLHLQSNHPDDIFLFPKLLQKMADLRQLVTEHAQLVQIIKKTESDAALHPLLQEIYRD
Excerpt: as §1, §2

## Cc1cc(OC/C=C(/c2ccc(F)cc2)c2ccc(C#CCN3CCOCC3)cc2)ccc1OCC(=O)O [Compound 1, (E)-[4-[3-(4-Fluorophenyl)-3-[4-[3-(morpholin-4-yl)propynyl]phenyl]allyloxy]-2-methyl-phenoxy]acetic acid]
hPPARγ
  agonist type on PPARγ: partial agonist
hPPARγ; in some cases
  activity on PPARγ in transactivation assays: negligible activity
hPPARα
  agonist type on PPARα: partial agonist
hPPARα; in some cases
  activity on PPARα in transactivation assays: negligible activity
